Experimental data from patent US11466044B2 (WAYNE STATE UNIVERSITY, priority 2017, dated 2022).
≈ marks a conversion by molar mass, not a printed value. Where two headings read alike, the source gives them in different places.

How the values were obtained:
[1] = system: Klebsiella pneumonia AG215; assay: MIC by broth microdilution, Klebsiella pneumonia; type: cell-based; conditions: strain AG215 Klebsiella pneumonia
[2] = system: wild type bacterial ribosomes; assay: in-vitro translation assay, bacterial ribosomes; type: biochemical; conditions: bacterial ribosome; Table 3 (Example 2); read-out: IC50 Bac
From the text: (§1) The antiribosomal activity of these compounds was investigated with cell-free translation assays using both wild type bacterial ribosomes and hybrid ribosomes carrying eukaryotic decoding A sites enabling the prediction of selectivity.

[3] = system: E coli carrying specific resistance determinants; assay: MIC by broth microdilution, E coli carrying specific resistance determinants; type: cell-based; conditions: for MIC50 / MIC: Escherichia coli
MRSA = assay: MIC by broth microdilution, MRSA isolates; type: cell-based; conditions: Table 1 (Example 2); for MIC50 MRSA AG38: strain AG38; for MIC50 MRSA AG39: strain AG39; for MIC50 MRSA AG42: strain AG42; for MIC50 MRSA AG44: strain AG44
N. gonorrhoeae = assay: Disk diffusion, N. gonorrhoeae; type: cell-based
M. smegmatis SZ380 = assay: MIC by broth microdilution, M. smegmatis; conditions: strain SZ380 Mycobacterium smegmatis
[4] = system: Acinetobacter baumannii pittii AG225; assay: MIC by broth microdilution, Acinetobacter baumannii; type: cell-based; conditions: strain AG225 Acinetobacter baumannii pittii
P aeruginosa = assay: MIC by broth microdilution, P aeruginosa isolates; type: cell-based, Pseudomonas aeruginosa; conditions: for MIC50 P aeruginosa AG31: strain AG31; for MIC50 P aeruginosa AG31 / MIC50 P aeruginosa AG32 / MIC50 P aeruginosa AG33 / MIC50 P aeruginosa AG86: Table 1 (Example 2); for MIC50 P aeruginosa AG32: strain AG32; for MIC50 P aeruginosa AG33: strain AG33; for MIC50 P aeruginosa AG86: strain AG86
[5] = system: mitochondrial ribosome (human chimeric); type: biochemical; conditions: mitochondrial; Table 3 (Example 2); read-out: IC50 Mit
From the text: as §1

[6] = system: cytosolic ribosome (human chimeric); type: biochemical; conditions: cytosolic; Table 3 (Example 2); read-out: IC50 Cyt
From the text: as §1

E coli wild type = assay: MIC by broth microdilution, wild type E coli; type: cell-based; conditions: for MIC50 E coli BM13 (AG06) wt: Table 2A (Example 2); for MIC50 E coli pH430 WT: Table 2B (Example 2); for MIC50 E coli AG01: strain AG01; for MIC50 E coli AG01 / MIC50 E coli AG03 / MIC50 E coli AG55: Table 1 (Example 2); for MIC50 E coli AG03: strain AG03; for MIC50 E coli AG55: strain AG55
[7] = system: Enterobacter cloacae AG290; assay: MIC by broth microdilution, Enterobacter cloacae; type: cell-based; conditions: strain AG290 Enterobacter cloacae

CC1CC(O)C2O[C@H](O[C@@H]3C(N)C[C@@H](N)C(O)[C@H]3O[C@@H]3O[C@H](CO)[C@H](O[C@H]4O[C@@H](CN)[C@@H](O)C(O)C4N)C3O)C(N)[C@@H](O)[C@@H]2O1 (stereo partly drawn) [Compound 125, 4-O-(2′-Amino-4′,8′-anhydro-2′,7′,9′-trideoxy-D-threo-α-D-gluco-nonapyranosyl)-5-O-[3-O-(2,6-diamino-2,6-dideoxy-β-L-idopyranosyl)-β-D-ribofuranosyl]-2-deoxystreptamine.5AcOH]
MIC ([1]; Klebsiella pneumoniae, read-out: MIC AG215 K. pneumon): 2 µg/mL (≈ 3.05 µM)
IC50 [2]: 40 nM
MIC50 ([3]; read-out: MIC50 E coli AG07 AAC(3), AG07 AAC(3), Table 2A (Example 2)): 8 µg/mL (≈ 12.2 µM)
MIC50 ([3]; read-out: MIC50 E coli AG09 AAC(6′), AG09 AAC(6′), Table 2A (Example 2)): 4 µg/mL (≈ 6.1 µM)
MIC50 ([3]; read-out: MIC50 E coli AG036 ANT(4′,4″), AG036 ANT(4′,4″), Table 2A (Example 2)): 2 to 4 µg/mL (≈ 3.05 to 6.1 µM)
MIC50 ([3]; read-out: MIC50 E coli AG036 ANT(4′,4″), AG036 ANT(4′,4″), Table 2B (Example 2)): 0.5 µg/mL (≈ 0.763 µM)
MIC50 ([3]; read-out: MIC50 E coli AG037 APH(3′)-III, AG037 APH(3′)-III, Table 2B (Example 2)): 16 µg/mL (≈ 24.4 µM)
MIC50 ([3]; read-out: MIC50 E coli AG037 APH(3′,5″), AG037 APH(3′,5″), Table 2A (Example 2)): 32 to 64 µg/mL (≈ 48.8 to 97.6 µM)
MIC50 ([3]; read-out: MIC50 E coli AG103 ArmA, AG103 ArmA, Table 2A (Example 2)): 4 µg/mL (≈ 6.1 µM)
MIC50 ([3]; read-out: MIC50 E coli AG103 armA, AG103 armA, Table 2B (Example 2)): 1 to 2 µg/mL (≈ 1.53 to 3.05 µM)
MIC50 ([3]; read-out: MIC50 E coli AG105 AAC(2′), AG105 AAC(2′), Table 2A (Example 2)): 2 to 4 µg/mL (≈ 3.05 to 6.1 µM)
MIC50 ([3]; read-out: MIC50 E coli pH414 AAC(6′)-I, pH414 AAC(6′)-I, Table 2B (Example 2)): 1 µg/mL (≈ 1.53 µM)
MIC50 ([3]; read-out: MIC50 E coli pH415 AAC(6′)-II, pH415 AAC(6′)-II, Table 2B (Example 2)): 1 to 2 µg/mL (≈ 1.53 to 3.05 µM)
MIC50 ([3]; read-out: MIC50 E coli pH421 APH(3′)-I, pH421 APH(3′)-I, Table 2B (Example 2)): > 32 µg/mL
MIC50 ([3]; read-out: MIC50 E coli pH422 APH(3′)-II, pH422 APH(3′)-II, Table 2B (Example 2)): 4 µg/mL (≈ 6.1 µM)
MIC50 ([3]; read-out: MIC50 E coli pH423 APH(3)-VI, pH423 APH(3)-VI, Table 2B (Example 2)): 2 µg/mL (≈ 3.05 µM)
MIC50 ([3]; read-out: MIC50 E coli pH432 ANT(4′), pH432 ANT(4′), Table 2B (Example 2)): 1 to 2 µg/mL (≈ 1.53 to 3.05 µM)
MIC ([3]; read-out: MIC AAC(6′)): 1 to 2 µg/mL (≈ 1.53 to 3.05 µM)
MIC ([3]; read-out: MIC ANT(4′)): 0.5 µg/mL (≈ 0.763 µM)
MIC ([3]; read-out: MIC APH(3′)-II): 4 µg/mL (≈ 6.1 µM)
MIC ([3]; read-out: MIC APH(3′)-VI): 2 µg/mL (≈ 3.05 µM)
MIC50 MRSA AG38 (MRSA): 8 to 16 µg/mL
MIC50 MRSA AG39 (MRSA): 8 µg/mL (≈ 12.2 µM)
MIC50 MRSA AG42 (MRSA): 8 µg/mL (≈ 12.2 µM)
MIC50 MRSA AG44 (MRSA): 4 µg/mL (≈ 6.1 µM)
zone of inhibition at 25 nmol/disc (N. gonorrhoeae; Neisseria gonorrhoeae): 9 mm
MIC SZ380 M. smegmatis (M. smegmatis SZ380): 0.5 µg/mL (≈ 0.763 µM)
MIC [4]: 4 µg/mL (≈ 6.1 µM)
MIC50 P aeruginosa AG31 (P aeruginosa): 32 µg/mL (≈ 48.8 µM)
MIC50 P aeruginosa AG32 (P aeruginosa): 16 to 32 µg/mL
MIC50 P aeruginosa AG33 (P aeruginosa): >128 µg/mL
MIC50 P aeruginosa AG86 (P aeruginosa): >128 µg/mL
MIC (P aeruginosa; strain AG220 Pseudomonas aeruginosa ATCC27853, read-out: MIC AG220 P. aerugin): 8 µg/mL (≈ 12.2 µM)
IC50 [5]: 312 µM
IC50 [6]: 30 µM
MIC50 E coli BM13 (AG06) wt (E coli wild type): 2 µg/mL (≈ 3.05 µM)
MIC (E coli wild type; Escherichia coli, ATCC25922, strain AG212 E. coli (ATCC25922), read-out: MIC AG212 E. coli): 2 µg/mL (≈ 3.05 µM)
MIC WT (E coli wild type; WT, Table 3 (Example 2)): 1 to 2 µg/mL
MIC50 E coli pH430 WT (E coli wild type): 1-2 μg/ml
MIC50 E coli AG01 (E coli wild type): 8 µg/mL (≈ 12.2 µM)
MIC50 E coli AG03 (E coli wild type): 8 µg/mL (≈ 12.2 µM)
MIC50 E coli AG55 (E coli wild type): 8 µg/mL (≈ 12.2 µM)
MIC ([7]; read-out: MIC AG290 E. cloacae): 2 µg/mL (≈ 3.05 µM)

CC(N)C1OC(OC2C(N)CC(N)C(O)C2OC2OC(CO)C(OC3OC(CN)C(O)C(O)C3N)C2O)C(N)C(O)C1O (stereo not drawn) [Compound 166]
MIC AG215 K. pneumon [1]: 0.25 to 0.5 µg/mL
MIC50 E coli AG09 AAC(6′) ([3]; AG09 AAC(6′), Table 2A (Example 2)): 0.5 µg/mL (≈ 0.795 µM)
MIC50 E coli AG036 ANT(4′,4″) ([3]; Table 2A (Example 2)): 16 µg/mL (≈ 25.5 µM)
MIC50 E coli AG036 ANT(4′,4″) ([3]; Table 2B (Example 2)): 16 µg/mL (≈ 25.5 µM)
MIC50 E coli AG037 APH(3′)-III ([3]; AG037 APH(3′)-III, Table 2B (Example 2)): >64 µg/mL
MIC50 E coli AG037 APH(3′,5″) ([3]; AG037 APH(3′,5″), Table 2A (Example 2)): >64 µg/mL
MIC50 E coli AG103 armA ([3]; AG103 armA, Table 2B (Example 2)): 1 µg/mL (≈ 1.59 µM)
MIC50 E coli pH414 AAC(6′)-I ([3]; pH414 AAC(6′)-I, Table 2B (Example 2)): 0.5 μg/ml
MIC50 E coli pH415 AAC(6′)-II ([3]; pH415 AAC(6′)-II, Table 2B (Example 2)): 1-2 μg/ml
MIC50 E coli pH421 APH(3′)-I ([3]; pH421 APH(3′)-I, Table 2B (Example 2)): >32 μg/ml
MIC50 E coli pH422 APH(3′)-II ([3]; pH422 APH(3′)-II, Table 2B (Example 2)): >32 μg/ml
MIC50 E coli pH423 APH(3)-VI ([3]; pH423 APH(3)-VI, Table 2B (Example 2)): >32 μg/ml
MIC50 E coli pH432 ANT(4′) ([3]; pH432 ANT(4′), Table 2B (Example 2)): 0.5 μg/ml
MIC50 MRSA AG38 (MRSA): 2 µg/mL (≈ 3.18 µM)
MIC50 MRSA AG39 (MRSA): >128 µg/mL
MIC50 MRSA AG42 (MRSA): >128 µg/mL
MIC50 MRSA AG44 (MRSA): 1 µg/mL (≈ 1.59 µM)
Disk diffusion 25 nmol N. gonorrhoeae (N. gonorrhoeae; 25 nmol): 12 mm
MIC SZ380 M. smegmatis (M. smegmatis SZ380): 0.125 to 0.25 µg/mL
MIC AG225 A. baumannii [4]: 1 µg/mL (≈ 1.59 µM)
MIC50 P aeruginosa AG31 (P aeruginosa): ≥128 µg/mL
MIC50 P aeruginosa AG32 (P aeruginosa): 128 µg/mL (≈ 204 µM)
MIC50 P aeruginosa AG33 (P aeruginosa): ≥128 µg/mL
MIC50 P aeruginosa AG86 (P aeruginosa): 16 µg/mL (≈ 25.5 µM)
MIC AG220 P. aerugin (P aeruginosa; strain AG220 Pseudomonas aeruginosa ATCC27853): >32 µg/mL
MIC50 E coli BM13 (AG06) wt (E coli wild type): 0.5 to 1 µg/mL
MIC50 E coli pH430 WT (E coli wild type): 0.5 μg/ml
MIC50 E coli AG01 (E coli wild type): 2 µg/mL (≈ 3.18 µM)
MIC50 E coli AG03 (E coli wild type): 2 µg/mL (≈ 3.18 µM)
MIC50 E coli AG55 (E coli wild type): 2 µg/mL (≈ 3.18 µM)
MIC AG212 E. coli (E coli wild type; strain AG212 E. coli (ATCC25922)): 1 µg/mL (≈ 1.59 µM)
MIC AG290 E. cloacae [7]: 0.5 µg/mL (≈ 0.795 µM)
